Seven molecules from PubChem BioAssay (NCI) can be followed below.

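A five-concentration, 48-hour dose response in 96-well plates underlies each endpoint, interpolated linearly between surrounding concentrations. TGI: concentration producing complete growth inhibition.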

Common to all, as to assay: inhibition of tumour cell growth, NCI panel, 48 h
Experiment [1] has as its system IGROV1 ovarian.
For experiment [2], the system named is HL-60(TB) leukemia.
In experiment [3] the test system is A549 NSCLC.
The subject of experiment [4] is NCI-H522 lung.
The subject of experiment [5] is U251 CNS.
Experiment [6] deals with M14 melanoma.
In experiment [7] the test system is UACC-62 melanoma.
For experiment [8], the system named is SNB-75 CNS.
Experiment [9] deals with NCI-H23 lung.
Experiment [10] relates to OVCAR-8 ovarian.
In experiment [11] the test system is T-47D breast.
Experiment [12] has as its system OVCAR-3 ovarian.
Experiment [13] relates to HS 578T breast.
Experiment [14] relates to EKVX NSCLC.
The subject of experiment [15] is HCC-2998 colon.
In experiment [16] the test system is PC-3 prostate.
Experiment [17] relates to DU-145 prostate.
In experiment [18] the test system is MDA-MB-231 breast.
Experiment [19] relates to SK-MEL-5 melanoma.
In experiment [20] the test system is A498 renal.

In the case of `COc1ccc(NC(=O)CSc2nc(C)nc3c2sc(=S)n3-c2ccccc2)cc1`, the TGI in experiment [1], in [2], in experiment [3], in experiment [4], in [5] and in experiment [6] was over 10 µM throughout. Also, the TGI in experiment [7] was over 10 µM; in experiment [8] it was 8.21 µM; in experiment [9] it was over 10 µM; in [10], over 10 µM; in experiment [11] it was over 10 µM; in experiment [12], over 10 µM. Also, the TGI in experiment [13], in experiment [14], in experiment [15], in experiment [16], in [17] and in experiment [18] was over 10 µM each time. Also, the TGI in experiment [19] and in [20] was over 10 µM in each case.
Take `O=C(CNc1ccc([N+](=O)[O-])cc1)Nn1c(-c2ccccc2)nc2ccccc2c1=O`: the TGI in experiment [1] was determined as 12.9 µM; in [2], 14 µM; in experiment [3], 25.8 µM; in experiment [4] it was 4.79 µM; in [5] it was 4.47 µM; in experiment [6], 8.59 µM. Besides, the TGI in experiment [7] is 2.19 µM; in experiment [8], 11.3 µM; in experiment [9], 7.13 µM; in experiment [10], 18 µM; in experiment [11], 9.63 µM; in experiment [12], 20.4 µM. Also, the TGI was found to be 8.22 µM in [13]; 28.6 µM in [14]; 22.6 µM in experiment [15]; 13.2 µM in experiment [16]; 23.3 µM in experiment [17]; 9.4 µM in experiment [18]. Moreover, the TGI in [19] stood at 2.61 µM; in [20] it was 19.3 µM.
Consider `O=[N+]([O-])c1ccc(C2Nn3c(nnc3-c3cccc([N+](=O)[O-])c3)S2)cc1` (stereo not given), for which the TGI in [1], in experiment [2], in [3], in experiment [4], in [5] and in experiment [6] was over 100 µM each time. Further, the TGI in [7], in experiment [8], in experiment [9], in experiment [10], in experiment [11] and in experiment [12] was over 100 µM each time. For the same molecule, the TGI in experiment [13], in experiment [14], in [15], in experiment [16], in experiment [17] and in [18] was over 100 µM in each case. Moreover, the TGI in experiment [19] and in [20] was over 100 µM each time.
With `CC(NC1=NCCO1)c1ccsc1` (stereo not given), the TGI in experiment [1] was over 100 µM; in [2], 53.3 µM; in [3], over 100 µM; in experiment [4], 35 µM; in experiment [5] it was 36.8 µM; in experiment [6], 35.4 µM. Besides, the TGI in experiment [7] is 34.3 µM; in experiment [8], 47.3 µM; in experiment [9], over 100 µM; in [10], 77.7 µM; in [11], over 100 µM; in experiment [12] it was 80.3 µM. The TGI in experiment [13] was 33.9 µM; in [14] it was over 100 µM; in experiment [15], over 100 µM; in experiment [16], 57.8 µM; in [17], over 100 µM; in experiment [18], 35.6 µM. Also, the TGI in [19] was 40.1 µM; in experiment [20], over 100 µM.
For the molecule `Cc1cc2c(cc1Cl)SC(NNC(=O)c1ccccc1)=NS2(=O)=O`, the TGI in experiment [1], in [2], in experiment [3], in experiment [4], in experiment [5] and in [6] was over 10 µM throughout. The TGI in experiment [7], in experiment [8], in [9], in experiment [10], in experiment [11] and in experiment [12] was over 10 µM throughout. The TGI in [13], in [14], in experiment [15], in experiment [16], in [17] and in [18] was over 10 µM in each case. The TGI in experiment [19] and in experiment [20] was over 10 µM each time.
Consider `CC(O)C1(O)C(O)CC(OC2c3cc4c(c(O)c3[C@@H]3C[C@@]2(C)OC32C=c3cc[nH]c3=N2)C(=O)c2cccc(O)c2C4=O)OC1C` (stereo not given in full), for which the TGI was determined as 3.22 µM in experiment [1]; 3.07 µM in experiment [2]; 4.4 µM in experiment [3]; 1.09 µM in [4]; 9.03 µM in experiment [5]; 2.73 µM in experiment [6]. The TGI in experiment [7] was 3.18 µM; in experiment [8], 8 µM; in [9] it was 3.81 µM; in experiment [10], 4.75 µM; in experiment [11], 9.07 µM; in [12], 6.45 µM. Also, the TGI in [13] was found to be 5.87 µM; in experiment [14], 3.6 µM; in [15], 2.84 µM; in experiment [16], 4.86 µM; in experiment [17] it was 8.8 µM; in experiment [18], 3.89 µM. Besides, the TGI in experiment [19] was found to be 5.56 µM; in experiment [20], 2.75 µM.
For the molecule `O=C(Cc1csc2[n+]1C(=O)/C(=C/c1ccc(Cl)cc1)S2)Nc1ccccc1`, the TGI was over 100 µM in experiment [1]; 74.2 µM in experiment [2]; 84.6 µM in [3]; 40.5 µM in experiment [4]; 32.1 µM in experiment [5]; over 100 µM in experiment [6]. Moreover, the TGI in [7] was 32 µM; in experiment [8] it was 94.6 µM; in [9] it was 91.3 µM; in experiment [10] it was over 100 µM; in [11] it was over 100 µM; in experiment [12], 27.7 µM. For the same molecule, the TGI in [13] is over 100 µM; in [14] it was 53.4 µM; in experiment [15], 39.3 µM; in experiment [16], 41.3 µM; in [17], over 100 µM; in [18], 37.3 µM. For the same molecule, the TGI in [19] was 26.6 µM; in experiment [20], 40.1 µM.
